Experimental data as given in publication PMC12446476 (Nature Communications, 2025).
≈ marks a conversion by molar mass, not a printed value. Like-named read-outs stand apart in the source and are kept apart here.

Tested on: N. gonorrhoeae
Assay: MIC determination, agar dilution (CLSI)
Assay type: cell-based, Neisseria gonorrhoeae
Conditions: Neisseria gonorrhoeae, read-out: Minimum inhibitory concentration
Summary of the method: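 For N. gonorrhoeae, WHO 2024 reference strains served as quality control, only whole doubling-dilution MICs were reported, and isolates were classified by EUCAST v14.0 breakpoints or ECOFF. Time-kill assays followed CLSI in Columbia broth with 1% IsoVitaleX, and viable counts came from plating serial dilutions on GC agar with IsoVitaleX.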

## Cc1c(CN(C)C(=O)/C=C/c2cnc3c(c2)N[C@H](C)[C@H](O)C(=O)N3)oc2ccccc12 [Debio 1453]
Clinical N. gonorrhoeae isolate 42, Sweden 2023
  MIC: 0.032 µg/mL (≈ 0.0761 µM)
Clinical N. gonorrhoeae isolate 43, Sweden 2023
  MIC: 0.064 µg/mL (≈ 0.152 µM)
Clinical N. gonorrhoeae isolate 44, Sweden 2023
  MIC: 0.032 µg/mL (≈ 0.0761 µM)
Clinical N. gonorrhoeae isolate 45, Sweden 2023
  MIC: 0.032 µg/mL (≈ 0.0761 µM)
Clinical N. gonorrhoeae isolate 46, Sweden 2023
  MIC: 0.032 µg/mL (≈ 0.0761 µM)
Clinical N. gonorrhoeae isolate 47, Sweden 2023
  MIC: 0.064 µg/mL (≈ 0.152 µM)
Clinical N. gonorrhoeae isolate 48, Sweden 2023
  MIC: 0.016 µg/mL (≈ 0.0381 µM)
Clinical N. gonorrhoeae isolate 49, Sweden 2023
  MIC: 0.032 µg/mL (≈ 0.0761 µM)
Clinical N. gonorrhoeae isolate 50, Sweden 2023
  MIC: 0.064 µg/mL (≈ 0.152 µM)
Clinical N. gonorrhoeae isolate 51, Sweden 2023
  MIC: 0.016 µg/mL (≈ 0.0381 µM)
Clinical N. gonorrhoeae isolate 52, Sweden 2023
  MIC: 0.125 µg/mL (≈ 0.297 µM)
Clinical N. gonorrhoeae isolate 53, Sweden 2023
  MIC: 0.064 µg/mL (≈ 0.152 µM)
Clinical N. gonorrhoeae isolate 54, Sweden 2023
  MIC: 0.064 µg/mL (≈ 0.152 µM)
Clinical N. gonorrhoeae isolate 55, Sweden 2023
  MIC: 0.064 µg/mL (≈ 0.152 µM)
Clinical N. gonorrhoeae isolate 56, Sweden 2023
  MIC: 0.008 µg/mL (≈ 0.019 µM)
Clinical N. gonorrhoeae isolate 57, Sweden 2023
  MIC: 0.032 µg/mL (≈ 0.0761 µM)
Clinical N. gonorrhoeae isolate 58, Sweden 2023
  MIC: 0.064 µg/mL (≈ 0.152 µM)
Clinical N. gonorrhoeae isolate 59, Sweden 2023
  MIC: 0.064 µg/mL (≈ 0.152 µM)
Clinical N. gonorrhoeae isolate 60, Sweden 2023
  MIC: 0.064 µg/mL (≈ 0.152 µM)
Clinical N. gonorrhoeae isolate 61, Sweden 2023
  MIC: 0.064 µg/mL (≈ 0.152 µM)
Clinical N. gonorrhoeae isolate 62, Sweden 2023
  MIC: 0.016 µg/mL (≈ 0.0381 µM)
Clinical N. gonorrhoeae isolate 63, Sweden 2023
  MIC: 0.032 µg/mL (≈ 0.0761 µM)
Clinical N. gonorrhoeae isolate 64, Sweden 2023
  MIC: 0.008 µg/mL (≈ 0.019 µM)
Clinical N. gonorrhoeae isolate 65, Sweden 2023
  MIC: 0.064 µg/mL (≈ 0.152 µM)
Clinical N. gonorrhoeae isolate 66, Sweden 2023
  MIC: 0.032 µg/mL (≈ 0.0761 µM)
Clinical N. gonorrhoeae isolate 67, Sweden 2023
  MIC: 0.032 µg/mL (≈ 0.0761 µM)
Clinical N. gonorrhoeae isolate 68, Sweden 2023
  MIC: 0.064 µg/mL (≈ 0.152 µM)
Clinical N. gonorrhoeae isolate 69, Sweden 2023
  MIC: 0.064 µg/mL (≈ 0.152 µM)
Clinical N. gonorrhoeae isolate 70, Sweden 2023
  MIC: 0.064 µg/mL (≈ 0.152 µM)
Clinical N. gonorrhoeae isolate 71, Sweden 2023
  MIC: 0.064 µg/mL (≈ 0.152 µM)
Clinical N. gonorrhoeae isolate 72, Sweden 2023
  MIC: 0.064 µg/mL (≈ 0.152 µM)
Clinical N. gonorrhoeae isolate 73, Sweden 2023
  MIC: 0.032 µg/mL (≈ 0.0761 µM)
Clinical N. gonorrhoeae isolate 74, Sweden 2023
  MIC: 0.064 µg/mL (≈ 0.152 µM)
Clinical N. gonorrhoeae isolate 75, Sweden 2023
  MIC: 0.008 µg/mL (≈ 0.019 µM)
Clinical N. gonorrhoeae isolate 76, Sweden 2023
  MIC: 0.064 µg/mL (≈ 0.152 µM)
Clinical N. gonorrhoeae isolate 77, Sweden 2023
  MIC: 0.064 µg/mL (≈ 0.152 µM)
Clinical N. gonorrhoeae isolate 78, Sweden 2023
  MIC: 0.032 µg/mL (≈ 0.0761 µM)
Clinical N. gonorrhoeae isolate 79, Sweden 2023
  MIC: 0.032 µg/mL (≈ 0.0761 µM)
Clinical N. gonorrhoeae isolate 80, Sweden 2023
  MIC: 0.032 µg/mL (≈ 0.0761 µM)
Clinical N. gonorrhoeae isolate 81, Sweden 2023
  MIC: 0.064 µg/mL (≈ 0.152 µM)
Clinical N. gonorrhoeae isolate 82, Sweden 2023
  MIC: 0.032 µg/mL (≈ 0.0761 µM)
Clinical N. gonorrhoeae isolate 83, Sweden 2023
  MIC: 0.064 µg/mL (≈ 0.152 µM)
Clinical N. gonorrhoeae isolate 84, Sweden 2023
  MIC: 0.064 µg/mL (≈ 0.152 µM)
Clinical N. gonorrhoeae isolate 85, Sweden 2023
  MIC: 0.008 µg/mL (≈ 0.019 µM)
